Data taken from the supplement of paper PMC10307832.

Columns and labels:
Assay in all cases: relative viability (nuclei count vs DMSO), 5 days (fraction); higher = more cells survive
[1] = system: EMC-BAC-2
How it was run: (§1)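 For relative viability, nuclei counts in treated wells were divided by those in vehicle wells. Lung cancer cell lines had been pin-tool dosed in 1536-well plates the day after seeding and cultured for 5 days, then fixed and stained in one step (final 0.05% Triton X-100, 1% formaldehyde, 1 ug/ml Hoechst) and imaged at 4×. Doses were one drug alone or a fixed anchor-drug dose plus five library-drug doses (not always all listed) in √10 steps, and values are duplicate-plate medians.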

[2] = system: HCC-366
How it was run: as §1

[3] = system: HCC-78
How it was run: as §1

[4] = system: LCLC-97TM1
How it was run: as §1

[5] = system: NCI-H1395
How it was run: as §1

[6] = system: NCI-H1648
How it was run: as §1

| SMILES | relative viability ([1]; first compound 0.2 µM) | relative viability ([1]; first compound 0.6325 µM) | relative viability ([1]; first compound 2 µM) | relative viability ([1]; first compound 6.325 µM) | relative viability ([1]; first compound 20 µM) | relative viability ([2]; first compound 0.2 µM) | relative viability ([2]; first compound 2 µM) | relative viability ([2]; first compound 6.325 µM) | relative viability ([2]; first compound 20 µM) | relative viability ([3]; first compound 0.2 µM) | relative viability ([3]; first compound 2 µM) | relative viability ([3]; first compound 6.325 µM) | relative viability ([3]; first compound 20 µM) | relative viability ([4]; first compound 0.2 µM) | relative viability ([4]; first compound 0.6325 µM) | relative viability ([4]; first compound 2 µM) | relative viability ([4]; first compound 6.325 µM) | relative viability ([4]; first compound 20 µM) | relative viability ([5]; first compound 0.2 µM) | relative viability ([5]; first compound 0.6325 µM) | relative viability ([5]; first compound 2 µM) | relative viability ([5]; first compound 6.325 µM) | relative viability ([5]; first compound 20 µM) | relative viability ([6]; first compound 0.2 µM) | relative viability ([6]; first compound 0.6325 µM) | relative viability ([6]; first compound 2 µM) | relative viability ([6]; first compound 6.325 µM) | relative viability ([6]; first compound 20 µM) |
| --- | --- | --- | --- | --- | --- | --- | --- | --- | --- | --- | --- | --- | --- | --- | --- | --- | --- | --- | --- | --- | --- | --- | --- | --- | --- | --- | --- | --- |
| Cc1csc(=NC2CCCCC2)n1/N=C/c1ccc(O)c(O)c1O [MIM1] + CC(=O)Nc1cccc(-n2c(=O)n(C3CC3)c(=O)c3c(Nc4ccc(I)cc4F)n(C)c(=O)c(C)c32)c1 [Trametinib] (partner 0.02 µM) | 0.889 | 0.799 | 0.702 | 0.73 | 0.355 | 0.321 | 0.3 | 0.0405 | 0.0273 | 0.75 | 0.778 | 0.556 | 1.15 | 0.207 | 0.218 | 0.217 | 0.196 | 0.0682 | 0.976 | 1.04 | 0.937 | 0.812 | 0.54 | 0.419 | 0.439 | 0.619 | 0.499 | 0.267 |
| Cc1csc(=NC2CCCCC2)n1/N=C/c1ccc(O)c(O)c1O [MIM1] + CC(=O)c1c(C)c2cnc(Nc3ccc(N4CCNCC4)cn3)nc2n(C2CCCC2)c1=O [Palbociclib] (partner 0.5 µM) | 0.543 | 0.542 | 0.476 | 0.492 | 0.244 | 0.384 | 0.236 | 0.127 | 0.0225 | 0.463 | 0.494 | 0.377 | 0.402 | 0.22 | 0.22 | 0.217 | 0.169 | 0.0835 | 0.583 | 0.6 | 0.596 | 0.579 | 0.406 | 0.262 | 0.284 | 0.311 | 0.276 | 0.248 |
